The subject of data set [1] is male mice. Description: 50% lethal dose (LD50) by the up and down method; therapeutic index. Format: in vivo. The settings on record: for Therapeutic index: ratio of LD50 to ED50.
Test in data set [2]: as above
In kind it is in vivo. The settings on record: mouse, in vivo; male mice, bodyweight 18 to 22 g; up and down method.

Data set [3] deals with ventricular flutter and fibrillation. The data set is described as follows: Antiarrhythmic activity: prevention of ventricular flutter and fibrillation in mice caused to inhale chloroform. Format: in vivo, male mice of ddy strain. The settings on record: for ED50: Mus musculus, sc, 0.5 h, subcutaneous, 30 minutes before chloroform inhalation, Litchfield and Wilcoxon, 95% confidence limit in parentheses. How it is done: In accordance with the method described by J. W. Lawson [Journal of pharmacology and Experimental Therapeutics, 160, 22, (1966)], male mice of ddy strain were caused to inhale chloroform and when respiration was arrested, electrocardiography was performed to observe the ventricular flutter and fibrillation. These abnormalities of the cardiac ventricle are prevented if an antiarrhythmic agent is previously administered. Several different doses of the compound of this invention were subctaneously administered to mice in group of 29 to 40 animals and, after an interval of 30 minutes, the animals were caused to inhale chloroform. The prophylactic effects of these doses on ventricular flutter and fibrillation were estimated and the 50% effective dose (ED50) and its 95% confidence limit were calculated by the method of Litchfield and Wilcoxon [Journal of Pharmacology and Experimental Therapeutics 96, 99, (1949)].

One may read the LD50 as the dose at which mortality reaches 50%. The ED50 is the dose that gives a 50% effect, or the effect in half of the subjects.

For the compound `Cc1cccc(C)c1NC(=O)C(c1ccccc1)C12CCCN1CCC2` (stereo not drawn), the Therapeutic index in data set [1] was 7.1. In addition, in data set [2], the LD50 stood at 22 mg/kg. In addition, the ED50 in data set [3] worked out at 3.1 mg/kg.

For the compound `Cc1ccc(NC(=O)C(C)C23CCCN2CCC3)cc1` (stereo not drawn), the Therapeutic index in data set [1] turned out to be 3.4. In data set [2], this compound gave an LD50 of 400 mg/kg. Moreover, in data set [3], the ED50 came to 115 mg/kg.

Regarding `Cc1cccc(C)c1NC(=O)[C@H](C)C12CCCN1CCC2` [(2R)(-)SUN3341, N-(2,6-dimethylphenyl)-2-(8-pyrrolizidine)propionamide], the “toxicity relative to the racemic compound” value in data set [1] (in words, versus racemic compound) was “comparable to the racemic compound in toxicity”. Moreover, in data set [1], the Therapeutic index is given as 26.0. For the same compound, in data set [1] (versus racemic compound), the “therapeutic index, in words” value is listed as “remarkably improved therapeutic index”. The LD50 in data set [2] is 67.6 mg/kg. Moreover, the ED50 in data set [3] was 2.6 mg/kg. In addition, the “antiarrhythmic activity relative to the racemic compound” value in data set [3] (versus racemic compound [(±)-compound]) is “approximately 9 times”.

Take `Cc1cccc(C)c1NC(=O)[C@@H](C)C12CCCN1CCC2` [(2S)(+)-SUN3341, N-(2,6-dimethylphenyl)-2-(8-pyrrolizidine)propionamide]: the Therapeutic index in data set [1] is listed as 3.3. Also, the LD50 in data set [2] is 79.3 mg/kg. The ED50 in data set [3] is 24 mg/kg.

With `Cc1cccc(C)c1NC(=O)C(C)C12CCCN1CCC2` (stereo not drawn) [N-(2,6-dimethylphenyl)-2-(8-pyrrolizidine)propionamide], the Therapeutic index in data set [1] is 4.0. Besides, in data set [2], the LD50 was determined as 92.1 mg/kg. For the same compound, in data set [3], the ED50 amounted to 23 mg/kg.

With `CCC(C(=O)Nc1c(C)cccc1C)C12CCCN1CCC2` (stereo not drawn), in data set [1], the Therapeutic index worked out at 3.1. For the same compound, the LD50 in data set [2] was found to be 26 mg/kg. In data set [3], the ED50 turned out to be 8.5 mg/kg.

The values above are taken from US4831049A, “Pyrrolizidine compounds, and their use as antiarrhythmic agents” (Suntory Limited, priority 1984, dated 1989).
